Entries after “also recorded” stand apart in the source; their conditions may differ. Like-named read-outs stand apart in the source and are kept apart here.
Assays:
[1] = target: T1, human PARP1 (Homo sapiens, UniProt P09874); test: PARP inhibitor assay (HT Fluorescent Homogeneous PARP Inhibition Assay Kit); type: biochemical; conditions: 10 μM, in vitro
T1 construct: purchased Trevigen
Method: (§1) The assay was performed with the HT Fluorescent Homogeneous PARP Inhibition Assay Kit (Trevigen), following manufacturer's instructions. Briefly, nicotinamide adenine dinucleotide, human PARP1 and activated-DNA solution was added onto a 96-well plate. 54 repurchased small molecules, at 10 μM final concentration, were introduced onto the 96-well assay plate and incubated in a humid chamber at room temperature for 30 min in dark. Cycling mixture, with resazurin and cycling enzyme diaphorase, was then added and incubated further for 1 hr in dark. Reaction was terminated by adding the stopping buffer.
as §1, with “(Trevegen),” for “(Trevigen),”, “stopped” for “terminated”

[2] = tested on: WI-38 cells; test: CdCl2 (cadmium) resistance assay; type: cell-based, human; conditions: YES/NO; for Assay 2: Cadmium-resistant: * indicates partial
Method: (§2) For many stress conditions tested previously, one significant correlation to longevity is the cellular resistance to H2O2 or CdCl2. Applicants then tested these small molecules, at five different final concentrations (0.25 μM to 20 μM), for cadmium and MMS resistance in WI-38 cells.
(§3) The setups on 384-well plates and incubation times were the same as for H2O2 until the time of incubation with the stressors, which was 12 hours for both cadmium and MMS assays. Applicants tested several conditions, including conditions used to assay fibroblasts from long-lived animals (Salmon et al., 2005). These conditions produced better results with the positive controls (KEAP1 and AKT1 siRNAs) in the MMS assay. Thus, for MMS, the cells were shifted from growth media—OptiMEM+10% FBS, to DMEM (Gibco)+2% BSA (no serum) just before adding small molecules, which occurred 24 hours before MMS addition.
(§4) Isolated small molecules were tested for MMS and cadmium resistance twice in two independent assays. Each small molecule was analyzed at five different concentrations (0.25 μM to 20 μM final concentration), with technical triplicates for each dose. Data were analyzed using a global variance t-test.

[3] = tested on: WI-38 cells; test: MMS resistance assay; type: cell-based, human; conditions: YES/NO; for Assay 3: MMS-resistant: * indicates partial; for Assay 5: Triple resistant: H2O2, cadmium and MMS
Method: as §2, §3, §4

[4] = tested on: human dermal fibroblast (HDF) primary cells; test: H2O2-resistance in primary human dermal fibroblasts; type: cell-based; conditions: YES/NO
[5] = tested on: NRF2; test: qPCR analysis of NRF2-regulated genes; type: cell-based, human; conditions: Homo sapiens, 24 h, Assay 12(o), at 10 uM, qPCR
Method: (§5) For qPCR analysis, WI-38 cells were treated with small molecules (at 10 μM) (biological quadruplicates) for 24 hrs and processed for RNA isolation and reverse transcription (RT) with the Cells-to-Ct Kit (Life Technologies), following manufacturer's instructions. RT products were diluted with H2O and used for qPCR analysis on an ABI 7300 system (Life Technologies) (technical triplicates). Relative expression levels of target genes were normalized to the genes B2M, PPIA and GAPDH. To knock down the expression of FOXO3 or NRF2, WI-38 cells were transfected, using the RNAiMAX reagents (Life Technologies), with siRNA oligos (at 10 nM final concentration, 10 ml culture medium) for FOXO3 (Life Technologies) or NRF2 (Integrated DNA Technologies) on 10-cm petri dishes for 36 hrs, and then detached and aliquoted onto 96-well (for qPCR analysis) or 384-well plates (for H2O2-stress treatment). ˜24 hrs later, small molecules were introduced and incubated with cells for 24 hrs. Cells were then either processed with the Cells-to-Ct Kit to prepare RT products for qPCR analysis or subjected to H2O2 (700 μM) for 3 hrs and assayed for viability. The knockdown efficiency of FOXO3 or NRF2 was checked at 36 hrs post-transfection and at the end as well.
(§6) For qPCR analysis, WI-38 cells were treated with small molecules (at 10 μM) (biological quadruplicate) for 24 hrs and processed for RNA isolation and reverse transcription (RT) with the Cells-to-Ct Kit (Life Technologies), following manufacturer's instructions. RT products were diluted with H2O and used for qPCR analysis on a LightCycler 480 system (Roche) (technical triplicates). Relative expression levels of target genes were normalized to the genes B2M, PPIA and GAPDH. To knock down the expression of FOXO3 or NRF2, WI-38 cells were transfected with siRNA oligos (at 10 nM final concentration) for FOXO3 (Life Technologies) or NRF2 on 10-cm petri dish for 36 hrs, and then detached and aliquoted onto 96-well plates. ˜24 hrs later, small molecules were introduced and incubated with cells for 24 hrs. Cells were then processed with the Cells-to-Ct Kit to prepare RT products for qPCR analysis. The knockdown efficiency of FOXO3 or NRF2 was checked at 36 hrs post-transfection and at the end as well.
NRF2/SKN-1, the oxidative stress and xenobiotic phase 2 detoxification protein, can extend animal lifespan (Sykiotis and Bohmann, 2008; Tullet et al., 2008). Applicants analyzed these small molecules for their ability to increase the expression of NRF2-regulated genes, including HMOX1 (heme oxygenase (decycling) 1; anti-oxidant), NQO1 (NAD(P)H dehydrogenase, quinone 1; phase 2 detoxification enzyme), GCLC (glutamate-cysteine ligase, catalytic) and GSTM1 (glutathionine S transferase) (Hur and Gray, 2011; Suzuki et al., 2013).

[6] = tested on: C. elegans; test: C. elegans lifespan assays (liquid and plate); type: in vivo, Caenorhabditis elegans; conditions: for ILS at 66 µM: Caenorhabditis elegans
[7] = tested on: WI-38 cells; conditions: for Assay 1: H2O2-resistant: YES/NO, if NO, possibly due to repeated freezing/thawing of stocks; for EC50: read-out: Est. ED50, dose response 0.6-20 μM, H2O2-resistance
[8] = tested on: PC12 cells expressing poly(Q)103-Htt-EGFP; test: Poly(Q) toxicity & viability analysis (cellular model of Huntington's disease); type: cell-based, rat; conditions: 10 uM; YES/NO
Method: Viability assays were performed as described before (Aiken et al., 2004). PC12 cells that stably express the inducible poly(Q)103-Htt-EGFP were grown in culture. […] Cell viability was analyzed 48 hrs later by measuring ATP content with CellTiter-Glo.
Toxic protein aggregation is a key feature of many age-related neurodegenerative diseases, including Alzheimer's and Huntington's disease (Caughey and Lansbury, 2003; Ross and Poirier, 2004). A number of animal models (Phillips et al., 2009) and cell models (Schlachetzki et al., 2013) have been established to study these diseases. For this purpose, PC12 rat pheochromocytoma cells display neuronal features and produce neurotransmitters and have been used extensively to study neuronal phenotypes, including synaptic transmission and neurological diseases. […] In this model, induced expression of poly(Q)103-Htt-EGFP could lead to the formation of aggregates and exert substantial toxicity in cells.

[9] = tested on: FOXO3; test: qPCR analysis of FOXO3-regulated genes; type: cell-based, human; conditions: Homo sapiens, 24 h, Assay 10(m), at 10 uM, qPCR
Method: as §5, §6
Many perturbations that increase lifespan and stress resistance in animals do so in a FOXO-dependent fashion (Kenyon, 2010c). Humans have several FOXO genes, but FOXO3, which promotes stress resistance in mammalian cell culture (Kops et al., 2002; Nemoto and Finkel, 2002; Tran et al., 2003), is the one that has been linked to exceptional longevity in humans (Anselmi et al., 2009; Flachsbart et al., 2009; Li et al., 2009; Pawlikowska et al., 2009; Soerensen et al., 2010; Willcox et al., 2008). FOXO1, in contrast, appears to be responsible for some symptoms of diabetes in mouse models (Cheng and White, 2011). For this reason, applicants have focused on analyzing potential ability of our small molecules to activate FOXO3. […] Another 4 molecules (Gr-7A, Gr-7C, O12 and O23) could induce robust expression (greater than 1.5-fold) of at least 2 FOXO3 target genes.

[10] = tested on: HTB-178 lung tumor cells (EGFR+, PIK3CA+, RB1−, TP53−); test: Killing effects on HTB-178 tumor cells; type: cell-based, human; conditions: Assay 1(y), at 10 uM
[11] = read-out: Induction of NRF2-regulated genes: NQO1 normalized fold-change
[12] = Assay 2(z), 1.0 × 10^9 bacteria/ml, wild type + FuDR (2012 July), read-out: Lifespan assay in liquid
[13] = Assay 3(aa), 2.5 × 10^9 bacteria/ml, wild type + FuDR, read-out: Lifespan assay in liquid
[14] = Assay 4(ab), 2.0 × 10^10 bacteria/ml, CF512 worms, no FuDR, read-out: Lifespan assay on plates
[15] = Assay 5(ac), 1.0 × 10^11 bacteria/ml, CF512 worms, no FuDR, read-out: Lifespan assay on plates
[16] = Assay 6(ad), 2.0 × 10^10 bacteria/ml, CF512 worms, no FuDR, read-out: Lifespan assay on plates
[17] = Assay 7(ae), 1.0 × 10^11 bacteria/ml, CF512 worms, no FuDR, read-out: Lifespan assay on plates

T1 sequence (P09874 whole entry): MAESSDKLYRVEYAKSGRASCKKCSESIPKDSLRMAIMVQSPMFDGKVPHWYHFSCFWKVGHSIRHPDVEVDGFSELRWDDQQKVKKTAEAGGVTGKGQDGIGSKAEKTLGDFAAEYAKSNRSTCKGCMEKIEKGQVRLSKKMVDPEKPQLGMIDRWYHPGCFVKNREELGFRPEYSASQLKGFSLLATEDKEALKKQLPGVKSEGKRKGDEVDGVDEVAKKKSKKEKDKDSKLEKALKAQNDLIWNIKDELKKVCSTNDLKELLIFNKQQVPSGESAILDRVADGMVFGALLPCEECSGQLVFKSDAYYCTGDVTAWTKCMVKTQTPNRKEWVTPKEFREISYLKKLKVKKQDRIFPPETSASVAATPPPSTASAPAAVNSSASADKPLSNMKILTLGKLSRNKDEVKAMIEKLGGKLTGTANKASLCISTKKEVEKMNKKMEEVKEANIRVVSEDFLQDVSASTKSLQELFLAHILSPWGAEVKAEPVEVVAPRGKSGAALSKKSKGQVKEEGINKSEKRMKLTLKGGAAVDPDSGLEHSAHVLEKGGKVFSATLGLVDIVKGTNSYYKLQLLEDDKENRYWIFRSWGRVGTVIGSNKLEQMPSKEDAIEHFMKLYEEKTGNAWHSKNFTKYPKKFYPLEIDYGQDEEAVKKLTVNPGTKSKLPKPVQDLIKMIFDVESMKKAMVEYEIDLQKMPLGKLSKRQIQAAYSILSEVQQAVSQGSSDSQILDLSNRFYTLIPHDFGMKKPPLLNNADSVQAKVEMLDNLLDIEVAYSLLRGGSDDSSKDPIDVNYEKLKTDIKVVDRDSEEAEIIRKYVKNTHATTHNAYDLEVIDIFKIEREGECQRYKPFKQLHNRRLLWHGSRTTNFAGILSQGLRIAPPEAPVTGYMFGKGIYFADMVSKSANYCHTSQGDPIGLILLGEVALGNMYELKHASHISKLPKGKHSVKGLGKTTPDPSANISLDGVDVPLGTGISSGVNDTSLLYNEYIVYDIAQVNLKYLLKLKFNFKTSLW

Cc1sc2nc(SCC(=O)N3CCOCC3)nc(O)c2c1C [O3]
Inhibition of PARP1 [1]: inhibitors of PARP1; also recorded: PARP inhibitors
Assay 4: H2O2- & Cd-resistant [2]: YES
Assay 2: Cadmium-resistant [2]: YES
Assay 3: MMS-resistant [3]: YES
Assay 5: Triple resistant [3]: YES
Assay 6: H2O2-resistant, at 10 uM, human dermal fibroblast (HDF) primary cells [4]: YES
fold induction at 10 µM [5, 11]: 1.21
ILS at 66 µM [6, 12]: 14.1%
ILS at 66 µM [6, 13]: 14.8%
ILS at 66 µM [6, 14]: 15.9%
ILS at 66 µM [6, 15]: 12%
ILS at 66 µM [6, 16]: 8.7%
ILS at 66 µM [6, 17]: 1.4%
Assay 1: H2O2-resistant [7]: YES
EC50 [7]: 20 µM

O=C1NC(=O)c2cccc3cccc1c23 [O7]
Inhibition of PARP1 [1]: confirmed as PARP inhibitors
Assay 4: H2O2- & Cd-resistant [2]: YES
Assay 2: Cadmium-resistant [2]: YES
Assay 3: MMS-resistant [3]: YES
Assay 5: Triple resistant [3]: YES
Assay 6: H2O2-resistant, at 10 uM, human dermal fibroblast (HDF) primary cells [4]: YES
Assay 20: Huntington's poly-Q toxicity attenuation [8]: YES
ILS at 66 µM [6, 12]: 19.7%
ILS at 66 µM [6, 13]: 26%
ILS at 66 µM [6, 14]: 33.7%
ILS at 66 µM [6, 15]: 10.2%
ILS at 66 µM [6, 16]: 5.8%
ILS at 66 µM [6, 17]: -10.5%
Lifespan extension of C. elegans ([6]; across independent trials): 10%-34%
Trials with lifespan extension ([6]; positive of total trials): 4 of 4
Assay 1: H2O2-resistant [7]: YES
EC50 [7]: 5.5 µM

COc1cc(-c2nc(C(N)=O)c3nc(O)n(-c4cccc(C)c4)c3n2)cc(Br)c1O [O9]
Assay 4: H2O2- & Cd-resistant [2]: YES
Assay 2: Cadmium-resistant [2]: YES
Assay 3: MMS-resistant [3]: YES
Assay 5: Triple resistant [3]: YES
fold induction at 10 µM ([9]; read-out: Induction of FOXO3-regulated genes: SESN1 normalized fold-change): 1.19
fold induction at 10 µM ([9]; read-out: Induction of FOXO3-regulated genes: SOD2 normalized fold-change): 1.15
fold induction at 10 µM ([9]; read-out: Induction of FOXO3-regulated genes: TXNIP normalized fold-change): 1.72
fold induction at 10 µM ([5]; read-out: Induction of NRF2-regulated genes: HMOX1 normalized fold-change): 1.97
fold induction at 10 µM [5, 11]: 1.32
ILS at 66 µM [6, 12]: 6.6%
ILS at 66 µM [6, 13]: 1.3%
ILS at 66 µM [6, 14]: -0.3%
Potential killing effects on HTB-178 tumor cells, 1st [10]: YES;
Potential killing effects on HTB-178 tumor cells, 2nd [10]: YES.
Assay 1: H2O2-resistant [7]: YES
EC50 [7]: 14.2 µM

CC(Nc1cc(C)ccn1)=C(C#N)C#N [O16]
Assay 6: H2O2-resistant, at 10 uM, human dermal fibroblast (HDF) primary cells [4]: YES
ILS at 66 µM [6, 12]: 16.8%
ILS at 66 µM [6, 13]: 11.4%
ILS at 66 µM [6, 14]: 19.7%
ILS at 66 µM [6, 15]: 9.8%
ILS at 66 µM [6, 16]: 9.9%
ILS at 66 µM [6, 17]: 12.1%
Potential killing effects on HTB-178 tumor cells, 1st [10]: YES;
Potential killing effects on HTB-178 tumor cells, 2nd [10]: YES.
EC50 [7]: 20 µM

Source: patent US11413278B2, “Compounds and methods for promoting stress resistance” (priority 2015, dated 2022)
